Source: ChEMBL document CHEMBL1156378, “A new dimeric stilbene with tyrosinase inhibitiory activity from Artocarpus gomezianus” (J Nat Prod, 2001)

Target: T1, Tyrosinase (Agaricus bisporus, UniProt O42713)
T1 sequence (O42713 whole entry): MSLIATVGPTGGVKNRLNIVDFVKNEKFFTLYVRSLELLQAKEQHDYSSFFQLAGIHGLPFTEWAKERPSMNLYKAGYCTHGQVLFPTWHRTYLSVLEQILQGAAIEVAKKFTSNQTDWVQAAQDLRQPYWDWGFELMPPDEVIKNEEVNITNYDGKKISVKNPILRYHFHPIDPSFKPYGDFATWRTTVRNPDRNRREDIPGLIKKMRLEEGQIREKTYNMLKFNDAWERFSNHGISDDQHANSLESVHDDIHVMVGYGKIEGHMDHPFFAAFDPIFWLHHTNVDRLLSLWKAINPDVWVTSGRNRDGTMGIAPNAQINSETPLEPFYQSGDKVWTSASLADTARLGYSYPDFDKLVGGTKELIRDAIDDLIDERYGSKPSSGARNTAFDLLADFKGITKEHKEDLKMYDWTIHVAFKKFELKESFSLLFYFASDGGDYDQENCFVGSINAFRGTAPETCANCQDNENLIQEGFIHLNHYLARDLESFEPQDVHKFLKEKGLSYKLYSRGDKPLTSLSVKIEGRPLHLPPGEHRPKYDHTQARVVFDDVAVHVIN
Description: Inhibition of mushroom tyrosinase

Row | IC50 | SMILES
1 | 39 µM | Oc1cc(O)cc(CC(c2ccc(O)cc2O)c2c(O)cc(/C=C/c3ccc(O)cc3O)cc2O)c1 (configuration not stated) [ANDALASIN A]
2 | 68 µM | Oc1cc(O)cc(/C=C/c2cc(C(Cc3cc(O)cc(O)c3)c3ccc(O)cc3O)c(O)cc2O)c1 (configuration not stated) [ARTOGOMEZIANOL]
